How the values were obtained:
[1] = target: T1, New Delhi metallo-β-lactamase-1 (NDM-1) (Escherichia coli, UniProt E5KIY2, K211A); test: fluorescence quenching (binding constant KA)
T1 construct: gene blaNDM-1; NDM-1 without the signal peptide, amino-terminal histidine tag

[2] = target: T2, New Delhi metallo-β-lactamase-1 (NDM-1) (Escherichia coli, UniProt E5KIY2); test: purified recombinant enzyme, nitrocefin hydrolysis assay; also fluorescence quenching, KA […] ([…] L/mol); format: biochemical
T2 construct: gene blaNDM-1; NDM-1 without the signal peptide, amino-terminal histidine tag

[3] = target: T3, New Delhi metallo-β-lactamase-1 (NDM-1) (Escherichia coli, UniProt E5KIY2, G219A); test: fluorescence quenching (binding constant KA)
T3 construct: gene blaNDM-1; NDM-1 without the signal peptide, amino-terminal histidine tag

## C=CCc1ccc(O)c(-c2cc(CC=C)ccc2O)c1 [magnolol]
[1]
  Kd: 20.8 µM
[2]
  IC50: 24.3 µM
[3]
  Kd: 18.2 µM
